Reference: patent US20220105061A1, “COMPOSITIONS AND METHODS FOR TREATING RESPIRATORY INSUFFICIENCY” (The Regents of the University of California, priority 2019, published 2022)
Entries after “also recorded” stand apart in the source; their conditions may differ.

Test system: Serpinh1 Prx1-cre conditional KO mice
Assay: Prenatal 4-PBA treatment of pregnant females in the Serpinh1 Prx1-cre conditional KO (Hsp47-Prx1) lethal osteogenesis imperfecta mouse model
Type: in vivo
Conditions: for perinatal lethality due to respiratory insufficiency: Hsp47-Prx1 model
Source text: Mutations in SERPINH1 (HSP47) cause osteogenesis imperfecta (OI). Patients with mutations in these genes are severely affected by bone fragility and pulmonary dysfunction. Serpinh1 Prx1-cre conditional KO mice were generated. These animals die immediately after birth due to respiratory insufficiency. The Prx1 gene is expressed in lungs' and limbs' mesenchymal lineages, causing phenotypes in both the pulmonary and skeletal system. Right after birth, all affected animals become cyanotic and die.
Animals were treated with 4-PBA. At least 12 pregnant females (SerpinH1−/− crossed with males Serpinh1+/−Prx1 carriers), who were expected to give birth to 25% affected pups (Serpinh1−/−Prx1 positive) were treated with 1 gr/Kg/day of 4-PBA in drinking water since the gestational age of E14 until birth.
Respiratory function was analyzed in treated vs. control animals by cyanotic observations, X-rays, lung floatability test, whole body oxymetry and histology. Multiple dosages were tested: 1, 2 and 5 gr/Kg/day, 1 gr/Kg/day being the minimum dosage to obtain the effect in 100% of individuals. 5 gr/Kg/day was discarded as 2 of 12 treated pups in two independent litters died without presenting the phenotype and showing hematomas. Other pregnancy stages were also tested starting the treatment from E10 to E17.
4-PBA treatment rescue perinatal lethality due to respiratory insufficiency in Hsp47-Prx1 model. A. X-Rays show a dark spot corresponding with air in the lungs in healthy animals (red arrows). […] B. Histological architecture is collapse in mutants (B′) but rescued in 4-PBA treated animals (B″). C. Mutants show cyanotic aspect at birth (C′). This is also rescued in 4-PBA treated animals (C″). D. Oxygen levels are rescued in treated mutants as observed by oxymeter measures right after birth.

## O=C(O)CCCc1ccccc1 [4-PBA, 4-phenylbutyric acid]
1 gr/Kg/day
  individuals in which the effect was obtained: 100%
1 gr/Kg/day in drinking water to pregnant females, E14 until birth, untreated affected pups die immediately after birth
  survival of pups with the affected genotype born from treated mothers: around 24 hours
5 gr/Kg/day, two independent litters, dosage discarded
  treated pups that died without presenting the phenotype and showing hematomas: 2 of 12
Prenatal treatment
  perinatal lethality due to respiratory insufficiency: rescue
Prenatal treatment, listed as 4-phenylbutyric
  perinatal lethality due to respiratory insufficiency: rescues
Collapsed in mutants, FIG. 1B
  lung histological architecture: rescued
Dosages tested: 1, 2 and 5 gr/Kg/day
  minimum dosage to obtain the effect in 100% of individuals: 1 gr/Kg/day
mouse, in vivo
  embryo viability: possible decreased embryo viability
  unproductive pregnancies of 4 plugged females: two
Prenatal treatment, cyanotic observations at birth
  cyanosis of treated affected animals: did not become cyanotic; also recorded: rescued
Prenatal treatment, oxymeter measures right after birth
  oxygen levels (whole body oxymetry): normal levels of oxygen; also recorded: rescued
Treated mutants, FIG. 1A
  air in the lungs on X-rays: show air in the lungs
Treatments performed between E13 to E17
  lung function improvement: observed similarly
